Test [1] deals with RPMI-8226. Description: Inhibition of cell growth in drug resistant 8226 myeloma cell line. The test is classed as functional, cell-based. To be noted: Homo sapiens.
Test [2] relates to RPMI-8226. The test can be described thus: Inhibition of cell growth in drug sensitive 8226 myeloma cell line. The test is classed as functional, cell-based. Conditions: Homo sapiens.
A further test relates to A549. Description: Inhibition of cell growth in (A-549) lung cell line. It counts as functional, cell-based. Conditions: Homo sapiens.
The subject of another test is A-375. The test can be described thus: Inhibition of cell growth in (A375) melan cell line. It counts as functional, cell-based. Conditions: Homo sapiens.
In test [3] the test system is MCF7. Description: Cytotoxicity was measured as 50% inhibition of cell growth in drug sensitive MCF-7 breast cell line. To be noted: Homo sapiens. It counts as functional, cell-based, Mus musculus.
The test system of test [4] is L1210. The test can be described thus: Inhibition of cell growth in (L1210 leukemia) MDR cells determined by MTT assay. The test is classed as functional, cell-based. To be noted: Mus musculus. For orientation: Tetrazolium assays rely on reduction of a dye to a coloured formazan, in cell work by metabolically active cells.
Test [5] has as its system MCF7. Description: Inhibition of cell growth in (MCF7 breast) dox cell line. The test is classed as functional, cell-based. Conditions: Homo sapiens.
Test [6] relates to MCF7. The test can be described thus: Inhibition of cell growth in (MCF7 breast) mitox cell line. To be noted: Homo sapiens. It counts as functional, cell-based.
In test [7] the test system is WiDr. Description: Inhibition of cell growth in drug resistant WiDr colon cell line. It counts as functional, cell-based. To be noted: Homo sapiens.
Test [8] relates to WiDr. Description: Inhibition of cell growth in drug sensitive WiDr colon cell line. The test is classed as functional, cell-based. Conditions: Homo sapiens.
The test system of test [9] is L1210. The test can be described thus: Cytotoxicity was measured as 50% inhibition of cell growth in drug sensitive L1210 leukemia cell line and is determined by MTT assay. The test is classed as functional, cell-based, Homo sapiens. Conditions: Mus musculus.

Our source for the IC50 values is ChEMBL document CHEMBL1132573, “Novel antitumor 2-cyanoaziridine-1-carboxamides” (J Med Chem, 1999).

For the molecule `CCOC(=O)CNC(=O)N1CC1C#N` (stereo unspecified), the IC50 – broadly, the concentration that gives 50% inhibition – was found to be 30 µM with RPMI-8226 [1]; 25 µM in the test with RPMI-8226 [2]; 24 µM with A549; 51 µM in the test with A-375; 15 µM in the test with MCF7 [3]; 13 µM with L1210 [4]. The 50% inhibitory concentration (IC50) is 17 µM in the test with MCF7 [5]; 11 µM with MCF7 [6]; 33 µM in the test on WiDr [7]; 31 µM in the test on WiDr [8]; 13 µM in the test on L1210 [9].
